Test results taken from paper PMC4718068 (Translation, 2013).

Experiments:
EF-G [1] = target: EF-G (Escherichia coli, UniProt P0A6M8); test: equilibrium titration, Trp fluorescence; assay type: binding
EF-G [2] = target: EF-G (Escherichia coli, UniProt P0A6M8, H92A); test: equilibrium titration, Trp fluorescence; assay type: binding
[3] = target: Ribosomes from E. coli MRE 600 (E. coli MRE 600) (UniProt P0AG67); test: stopped-flow fluorescence of mant-nucleotide excited by FRET from Trp of EF-G

Sequence of EF-G (Escherichia coli, UniProt P0A6M8) (P0A6M8 2-704): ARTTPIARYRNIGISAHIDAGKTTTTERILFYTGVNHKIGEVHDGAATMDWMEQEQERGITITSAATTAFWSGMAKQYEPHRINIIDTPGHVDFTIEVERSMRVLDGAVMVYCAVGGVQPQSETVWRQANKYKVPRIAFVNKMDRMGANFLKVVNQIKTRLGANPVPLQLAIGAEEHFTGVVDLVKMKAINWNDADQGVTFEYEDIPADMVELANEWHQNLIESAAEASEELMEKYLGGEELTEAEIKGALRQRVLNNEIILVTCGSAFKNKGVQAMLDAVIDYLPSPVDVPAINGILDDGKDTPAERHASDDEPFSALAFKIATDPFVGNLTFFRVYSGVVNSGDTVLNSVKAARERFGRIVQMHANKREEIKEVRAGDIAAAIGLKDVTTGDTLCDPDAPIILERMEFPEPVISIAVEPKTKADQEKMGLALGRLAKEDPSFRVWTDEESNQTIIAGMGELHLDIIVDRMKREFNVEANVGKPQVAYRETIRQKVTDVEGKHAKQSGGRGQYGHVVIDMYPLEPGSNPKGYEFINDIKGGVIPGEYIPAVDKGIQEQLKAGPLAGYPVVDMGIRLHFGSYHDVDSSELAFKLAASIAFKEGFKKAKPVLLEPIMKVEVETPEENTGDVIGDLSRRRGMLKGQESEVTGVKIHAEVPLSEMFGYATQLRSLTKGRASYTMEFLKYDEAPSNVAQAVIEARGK
Sequence of EF-G (Escherichia coli, UniProt P0A6M8, H92A) (P0A6M8 2-704 H92A): as the sequence (P0A6M8 2-704) above, with H91A counted along it

Compound | Kd (EF-G [1]) [µM] | Kd (EF-G [2]) [µM] | rate of formation of the ribosome–EF-G-mant-GTP complex [3] [s⁻¹]
Nc1nc2c(ncn2[C@@H]2O[C@H](COP(=O)(O)OP(=O)(O)OP(=O)(O)O)[C@@H](O)[C@H]2O)c(=O)[nH]1 [GTP] | 1 to 2 | 1 to 2 | 
EF-G(H91A) (enzyme) |  |  | 1
